The text below walks through data of patent publication US20220056075A1, “METHOD FOR TREATING OPIOID USE DISORDER” (THE ADMINISTRATORS OF THE TULANE EDUCATIONAL FUND, priority 2019, published 2022).

Entries after “also recorded” stand apart in the source; their conditions may differ.

Holding throughout (assay type): in vivo, rat
One data set concerns male and female rats. As to the kind of experiment: Naloxone-induced conditioned place aversion (CPA). The settings on record: i.v. morphine 5.6 mg/Kg or ZH853 4.2 mg/Kg, naloxone 1 mg/Kg s.c. 4 h later. The method, then: Four hours later they received s.c. naloxone (1 mg/Kg) and were confined to one side of the apparatus (counterbalanced) for 20 min. The following day the animals received vehicle-then-saline rather than drug-then-naloxone. This cycle (drug+4 h+nlx+next day vehicle+saline) was repeated once, and the next day the animals had access to the entire apparatus (Post-cond).
To assess whether ZH853 induces the negative affect typical of opioid withdrawal, the conditioned place aversion (CPA) test was conducted.

Data set [1] relates to Male Sprague Dawley rats. The data set is described as follows: Conditioned place preference (CPP), 5-day procedure. The conditions noted are these: 5 days of conditioning, 1.8, 3.2, 5.6 mg/Kg i.v. Here is the method:
(§1) Conditioned Place Preference (CPP) and locomotor activity: Standard CPP chambers (TSE; Chesterfield, Mo.) were used to measure baseline activity and conditioning trials. Baseline activity was measured over 2 days with 4 trials per day (2 in the AM, and 2 in the PM) lasting 20 min each. […] Conditioning trials were conducted for 5 days and tested in an unbiased manner such that drug/environment pairings were counterbalanced for time of drug injection (AM or PM) and compartment (preferred or non-preferred) based on baseline activity. […] This indicates a lack of carry-over effects of drug between sessions. One day following the last conditioning trial, a 20 min test trial was conducted in the same manner as baseline trials in which rats were free to explore both compartments. Change in time spent exploring the drug-paired compartment (test-baseline) was used to indicate preference (or aversion) to the compartment. Approximately 20 min following the final session, rats were perfused and brain samples were taken for immunohistochemical analysis (below). Locomotor activity was assessed by infrared light beams located in the conditioning compartments and the start box. […] Data were recorded in meters and an assessment of locomotor sensitization was made by subtracting the first session from the final session.
(§2) Experimenters were blinded to treatment groups.

Data set [2] deals with Male Sprague Dawley rats. As to the kind of experiment: Locomotor sensitization during CPP conditioning sessions. The conditions noted are these: 1.8, 3.2, 5.6 mg/Kg i.v., 5 daily injections, compared to vehicle. Here is the method: as §1, §2
Another data set relates to male rats. The data set is described as follows: Maintenance of established oxycodone self-administration (substitution). Here is the method: Self-administration (SA): Self-administration tests were conducted in standard operant chambers (MED Associates, St. Albans, Vt.). Infusions were delivered through TYGON tubing threaded through metal spring leashes and attached to exterior infusion pumps. 3-hour sessions were conducted Monday-Friday during the dark cycle. At the start of each session, the house light was illuminated, and levers extended. […] For the first 5 sessions, rats were trained to lever press for oxycodone (0.1 mg/kg/infusion) on a FR1 reinforcement schedule. For the following 10 sessions, the dose of oxycodone was decreased to 0.05 mg/kg/infusion to increase lever responding.
Maintenance of established oxycodone self-administration: Following acquisition of oxycodone self-administration, animals were split into treatment groups counterbalanced for total oxycodone intake, average number of infusions obtained in the last 3 sessions, and average number of active lever pressings over the last 3 sessions. Ten maintenance sessions were conducted in the same way as oxycodone acquisition except rats were either maintained on 0.1 mg/kg/infusion oxycodone or had drug availability substituted with equi-antinociceptive 1 mg/kg/infusion ZH853 or vehicle.

In the case of `NC(=O)CNC(=O)[C@@H]1CCC(=O)NCCCC[C@@H](NC(=O)[C@@H](N)Cc2ccc(O)cc2)C(=O)N[C@@H](Cc2c[nH]c3ccccc23)C(=O)N[C@@H](Cc2ccccc2)C(=O)N1` [ZH853, Tyr-c[D-Lys-Trp-Phe-Glu]-Gly-NH2], in the data set with male and female rats, the naloxone-induced place aversion result is “did not produce a place aversion”. Besides, the “conditioned place preference (CPP) or aversion” value with Male Sprague Dawley rats [1] is given as “did not produce CPP (or aversion) at any dose”. Further, the “locomotor sensitization (LS), day 5 minus day 1” value in the data set on Male Sprague Dawley rats [2] is on record as “did not produce LS at any dose tested”. In the data set on male rats (after acquisition of oxycodone SA, drug continued or substituted, i.v. infusions), the “self-administration behavior during maintenance sessions” value is “the self-administration behavior extinguished over time; also recorded: reduced the number of infusions obtained (C) and active lever responses (D) over maintenance sessions”. Also, the “rate of extinction of self-administration” value in the data set with male rats (substitution for oxycodone) is recorded as “faster than with vehicle substitution”.
